In publication PMC8222254, “Self-assembly of an anion receptor with metal-dependent kinase inhibition and potent in vitro anti-cancer properties” (Nature Communications, 2021):
Where “and” joins values, the source holds several entries; their conditions need not be identical. Equal entries are not always repeated.

How the values were obtained:
Test in all cases: Kinase inhibition screen, cell-free 33P ATP assay at 10 μM
Assay type in all cases: biochemical
[1] = target: 140 purified human kinases (Homo sapiens, UniProt P04629); conditions: TrkA
140 purified human kinases (Homo sapiens, UniProt P04629), sequence (P04629 33-796): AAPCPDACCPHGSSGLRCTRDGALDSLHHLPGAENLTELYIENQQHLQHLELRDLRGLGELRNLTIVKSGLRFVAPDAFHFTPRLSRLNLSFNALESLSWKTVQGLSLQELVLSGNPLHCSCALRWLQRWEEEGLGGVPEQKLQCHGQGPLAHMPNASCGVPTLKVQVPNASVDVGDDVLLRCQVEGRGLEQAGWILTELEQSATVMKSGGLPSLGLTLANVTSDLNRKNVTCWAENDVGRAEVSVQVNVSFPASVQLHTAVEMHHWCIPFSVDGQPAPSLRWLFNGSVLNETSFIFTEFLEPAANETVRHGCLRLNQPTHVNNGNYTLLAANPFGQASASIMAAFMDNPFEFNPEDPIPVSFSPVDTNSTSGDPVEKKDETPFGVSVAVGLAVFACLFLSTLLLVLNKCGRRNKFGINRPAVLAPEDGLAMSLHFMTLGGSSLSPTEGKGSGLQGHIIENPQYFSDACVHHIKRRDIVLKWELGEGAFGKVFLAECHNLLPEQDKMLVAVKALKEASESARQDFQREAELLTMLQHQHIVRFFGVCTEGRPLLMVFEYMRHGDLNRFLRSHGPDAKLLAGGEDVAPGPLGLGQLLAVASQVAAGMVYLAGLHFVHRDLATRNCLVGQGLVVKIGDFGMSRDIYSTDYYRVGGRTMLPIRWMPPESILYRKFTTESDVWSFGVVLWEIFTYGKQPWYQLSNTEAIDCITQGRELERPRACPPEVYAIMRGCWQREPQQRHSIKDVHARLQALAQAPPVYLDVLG
Summary of the method: (§1)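 Radiometric ^33P ATP cell-free format with purified enzymes; both complexes run at 10 μM in duplicate, results plotted on a kinome map via HGNC symbols.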

[2] = target: 140 purified human kinases (Homo sapiens, UniProt Q9BYT3)
140 purified human kinases (Homo sapiens, UniProt Q9BYT3), sequence (Q9BYT3 whole entry): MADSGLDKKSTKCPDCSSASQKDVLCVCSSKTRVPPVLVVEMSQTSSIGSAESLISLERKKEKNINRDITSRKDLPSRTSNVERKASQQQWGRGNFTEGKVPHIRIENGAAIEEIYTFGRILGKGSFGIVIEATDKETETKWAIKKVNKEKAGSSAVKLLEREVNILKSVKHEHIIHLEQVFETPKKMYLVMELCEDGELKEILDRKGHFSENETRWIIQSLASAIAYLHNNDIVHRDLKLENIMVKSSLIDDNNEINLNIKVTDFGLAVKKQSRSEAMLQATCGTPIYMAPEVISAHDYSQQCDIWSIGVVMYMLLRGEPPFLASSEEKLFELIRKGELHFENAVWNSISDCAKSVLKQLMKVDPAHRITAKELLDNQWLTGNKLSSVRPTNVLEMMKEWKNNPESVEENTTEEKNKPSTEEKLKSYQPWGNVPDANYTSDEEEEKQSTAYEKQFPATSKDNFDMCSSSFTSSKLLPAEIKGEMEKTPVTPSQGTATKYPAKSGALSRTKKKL
Summary of the method: as §1

[3] = target: 140 purified human kinases (Homo sapiens, UniProt Q13882); conditions: BRK
140 purified human kinases (Homo sapiens, UniProt Q13882), sequence (Q13882 whole entry): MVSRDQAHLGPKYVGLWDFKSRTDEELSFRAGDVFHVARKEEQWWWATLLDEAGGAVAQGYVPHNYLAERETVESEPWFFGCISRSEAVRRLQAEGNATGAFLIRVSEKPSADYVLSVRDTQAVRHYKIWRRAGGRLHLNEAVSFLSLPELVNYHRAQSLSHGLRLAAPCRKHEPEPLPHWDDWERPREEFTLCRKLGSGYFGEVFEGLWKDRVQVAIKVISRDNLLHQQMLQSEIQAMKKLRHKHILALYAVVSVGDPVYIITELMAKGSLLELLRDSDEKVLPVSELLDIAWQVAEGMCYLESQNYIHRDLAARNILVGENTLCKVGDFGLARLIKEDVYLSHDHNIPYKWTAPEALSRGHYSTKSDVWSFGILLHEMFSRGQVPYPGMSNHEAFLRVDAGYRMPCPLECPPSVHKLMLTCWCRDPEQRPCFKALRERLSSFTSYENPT
Summary of the method: as §1

[4] = target: T1, 140 purified human kinases (Homo sapiens, UniProt Q92630)
T1 sequence (Q92630 1-601): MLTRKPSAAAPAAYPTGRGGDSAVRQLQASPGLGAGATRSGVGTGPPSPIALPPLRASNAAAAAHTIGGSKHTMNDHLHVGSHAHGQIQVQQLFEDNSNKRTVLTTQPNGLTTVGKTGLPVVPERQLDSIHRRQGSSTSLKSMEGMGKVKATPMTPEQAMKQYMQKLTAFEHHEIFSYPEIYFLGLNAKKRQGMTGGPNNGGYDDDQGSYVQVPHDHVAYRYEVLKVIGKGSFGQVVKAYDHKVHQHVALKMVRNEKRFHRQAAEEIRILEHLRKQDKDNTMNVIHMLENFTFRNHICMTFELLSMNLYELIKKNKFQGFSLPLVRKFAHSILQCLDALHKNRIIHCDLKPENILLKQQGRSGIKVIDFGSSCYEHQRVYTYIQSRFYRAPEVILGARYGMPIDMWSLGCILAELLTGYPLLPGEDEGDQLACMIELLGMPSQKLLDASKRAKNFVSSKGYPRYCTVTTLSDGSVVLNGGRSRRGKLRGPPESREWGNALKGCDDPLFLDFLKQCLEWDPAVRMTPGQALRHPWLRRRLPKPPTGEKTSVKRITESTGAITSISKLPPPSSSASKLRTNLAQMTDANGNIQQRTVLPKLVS
Summary of the method: as §1

[5] = target: 140 purified human kinases (Homo sapiens, UniProt P80192)
140 purified human kinases (Homo sapiens, UniProt P80192), sequence (P80192 whole entry): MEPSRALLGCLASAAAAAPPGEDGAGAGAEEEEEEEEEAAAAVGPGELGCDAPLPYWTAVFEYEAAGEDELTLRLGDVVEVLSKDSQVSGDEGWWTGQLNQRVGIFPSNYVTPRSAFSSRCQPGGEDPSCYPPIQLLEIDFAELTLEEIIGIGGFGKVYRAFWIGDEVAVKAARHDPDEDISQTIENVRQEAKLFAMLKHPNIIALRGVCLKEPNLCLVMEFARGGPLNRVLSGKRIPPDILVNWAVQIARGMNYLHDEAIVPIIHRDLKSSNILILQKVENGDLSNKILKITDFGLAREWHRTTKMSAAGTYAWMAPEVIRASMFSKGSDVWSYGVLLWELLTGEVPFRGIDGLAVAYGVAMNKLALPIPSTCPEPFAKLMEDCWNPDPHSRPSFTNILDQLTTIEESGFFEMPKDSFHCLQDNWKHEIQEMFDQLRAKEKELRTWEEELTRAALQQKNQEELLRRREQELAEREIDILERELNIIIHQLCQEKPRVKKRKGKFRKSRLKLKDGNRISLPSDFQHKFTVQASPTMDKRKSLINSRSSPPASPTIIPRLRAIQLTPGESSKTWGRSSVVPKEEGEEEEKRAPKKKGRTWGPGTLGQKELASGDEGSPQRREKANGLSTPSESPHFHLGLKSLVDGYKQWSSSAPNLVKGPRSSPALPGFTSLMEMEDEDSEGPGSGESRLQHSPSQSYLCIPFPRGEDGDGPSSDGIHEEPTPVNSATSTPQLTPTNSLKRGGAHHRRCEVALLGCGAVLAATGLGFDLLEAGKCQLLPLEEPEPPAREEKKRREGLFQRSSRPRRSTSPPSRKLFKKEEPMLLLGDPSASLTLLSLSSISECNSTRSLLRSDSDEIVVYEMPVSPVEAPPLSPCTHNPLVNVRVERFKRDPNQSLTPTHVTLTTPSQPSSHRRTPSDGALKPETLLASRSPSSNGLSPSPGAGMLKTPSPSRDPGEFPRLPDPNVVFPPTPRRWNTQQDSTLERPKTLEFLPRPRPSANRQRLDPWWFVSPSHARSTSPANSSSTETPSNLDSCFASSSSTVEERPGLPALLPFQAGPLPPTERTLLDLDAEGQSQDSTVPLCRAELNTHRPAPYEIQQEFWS
Summary of the method: as §1

[6] = target: T2, 140 purified human kinases (Homo sapiens, UniProt P29323)
T2 sequence (P29323 19-1055): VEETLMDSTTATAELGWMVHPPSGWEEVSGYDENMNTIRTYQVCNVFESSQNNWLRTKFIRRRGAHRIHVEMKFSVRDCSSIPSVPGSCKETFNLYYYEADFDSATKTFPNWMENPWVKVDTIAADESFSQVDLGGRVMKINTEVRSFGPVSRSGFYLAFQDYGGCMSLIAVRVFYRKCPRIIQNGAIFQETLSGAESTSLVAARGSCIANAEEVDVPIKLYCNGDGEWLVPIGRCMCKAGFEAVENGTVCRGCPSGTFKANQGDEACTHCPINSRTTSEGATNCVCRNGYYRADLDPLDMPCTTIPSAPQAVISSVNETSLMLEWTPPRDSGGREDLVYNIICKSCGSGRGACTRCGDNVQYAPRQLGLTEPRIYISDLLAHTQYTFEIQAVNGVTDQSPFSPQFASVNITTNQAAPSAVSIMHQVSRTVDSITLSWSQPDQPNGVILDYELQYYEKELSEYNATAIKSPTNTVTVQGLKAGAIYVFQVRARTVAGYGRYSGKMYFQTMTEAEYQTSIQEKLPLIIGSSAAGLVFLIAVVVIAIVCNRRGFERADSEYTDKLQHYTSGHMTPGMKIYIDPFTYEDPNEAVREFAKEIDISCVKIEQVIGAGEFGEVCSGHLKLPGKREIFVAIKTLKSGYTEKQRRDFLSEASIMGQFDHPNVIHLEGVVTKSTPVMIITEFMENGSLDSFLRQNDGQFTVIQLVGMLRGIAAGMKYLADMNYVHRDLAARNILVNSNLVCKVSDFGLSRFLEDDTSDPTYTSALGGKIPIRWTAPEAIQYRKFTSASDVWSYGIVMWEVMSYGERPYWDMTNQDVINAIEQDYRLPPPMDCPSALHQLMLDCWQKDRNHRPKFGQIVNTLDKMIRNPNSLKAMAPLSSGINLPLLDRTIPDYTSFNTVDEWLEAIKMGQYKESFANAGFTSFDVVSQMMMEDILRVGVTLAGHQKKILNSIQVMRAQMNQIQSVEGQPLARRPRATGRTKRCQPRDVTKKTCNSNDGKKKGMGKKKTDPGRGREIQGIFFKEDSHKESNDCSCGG
Summary of the method: as §1

[7] = target: 140 purified human kinases (Homo sapiens, UniProt P43405); conditions: SYK
Summary of the method: as §1

[8] = target: 140 purified human kinases (Homo sapiens, UniProt P11309)
140 purified human kinases (Homo sapiens, UniProt P11309), sequence (P11309 whole entry): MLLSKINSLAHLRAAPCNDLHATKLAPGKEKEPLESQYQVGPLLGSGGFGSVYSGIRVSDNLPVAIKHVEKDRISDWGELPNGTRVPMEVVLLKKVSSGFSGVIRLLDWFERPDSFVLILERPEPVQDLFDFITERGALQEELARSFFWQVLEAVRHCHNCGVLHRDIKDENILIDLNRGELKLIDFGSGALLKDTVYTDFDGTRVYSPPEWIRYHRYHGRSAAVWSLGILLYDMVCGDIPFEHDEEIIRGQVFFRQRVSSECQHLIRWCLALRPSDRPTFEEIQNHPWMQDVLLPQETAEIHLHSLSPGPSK
Summary of the method: as §1

## [Cu+2].[Cu+2].[Cu+2].c1ccc(-c2csc(NCCN(CCNc3nc(-c4ccccn4)cs3)CCNc3nc(-c4ccccn4)cs3)n2)nc1.c1ccc(-c2csc(NCCN(CCNc3nc(-c4ccccn4)cs3)CCNc3nc(-c4ccccn4)cs3)n2)nc1 [[L2Cu3]6+]
[1]
  % Inhibition Run 1: 78.1%
  % Inhibition Run 2: 61.2%
  % Inhibition, Mean: 70%
  mean % activity: 30%
[1]; Run 1
  % activity: 21.9%
[1]; Run 2
  % activity: 38.8%
[2]; STK33
  % Activation, Mean value: 7%
  % Inhibition Run 1: -1.8%
  % Inhibition Run 2: -12.3%
  % Inhibition, Mean: -7%
  mean % activity: 107%
[2]; STK33, Run 1
  % activity: 101.8%
[2]; STK33, Run 2
  % activity: 112.3%
[3]
  % Inhibition Run 1: 67.9%
  % Inhibition Run 2: 57.6%
  % Inhibition, Mean: 63%
  mean % activity: 37%
[3]; Run 1
  % activity: 32.1%
[3]; Run 2
  % activity: 42.4%
[4]; DYRK2
  % Inhibition Run 1: 27.2%
  % Inhibition Run 2: -2.7%
  % Inhibition, Mean: 12%
  mean % activity: 88%
[4]; DYRK2, Run 1
  % activity: 72.8%
[4]; DYRK2, Run 2
  % activity: 102.7%
[5]; MLK1
  % Inhibition Run 1: 83.6%
  % Inhibition Run 2: 85.4%
  % Inhibition, Mean: 85%
  mean % activity: 16%
[5]; MLK1, Run 1
  % activity: 16.4%
[5]; MLK1, Run 2
  % activity: 14.6%
[6]; EPH-B2
  % Inhibition Run 1: 57.3%
  % Inhibition Run 2: 57.8%
  % Inhibition, Mean: 58%
  mean % activity: 42%
[6]; EPH-B2, Run 1
  % activity: 42.7%
[6]; EPH-B2, Run 2
  % activity: 42.2%
[7]
  % Inhibition Run 1: 88%
  % Inhibition Run 2: 79.4%
  % Inhibition, Mean: 84%
  mean % activity: 16%
[7]; Run 1
  % activity: 12%
[7]; Run 2
  % activity: 20.6%
[8]; PIM1
  % Inhibition Run 1: 53.7%
  % Inhibition Run 2: 42%
  % Inhibition, Mean: 48%
  mean % activity: 52%
[8]; PIM1, Run 1
  % activity: 46.3%
[8]; PIM1, Run 2
  % activity: 58%

## CC(=O)[O-].CC(=O)[O-].CC(=O)[O-].CC(=O)[O-].CC(=O)[O-].CC(=O)[O-].[Zn+2].[Zn+2].[Zn+2].c1ccc(-c2csc(NCCN(CCNc3nc(-c4ccccn4)cs3)CCNc3nc(-c4ccccn4)cs3)n2)nc1.c1ccc(-c2csc(NCCN(CCNc3nc(-c4ccccn4)cs3)CCNc3nc(-c4ccccn4)cs3)n2)nc1 [[L2Zn3]6+]
[1]
  % Inhibition, Mean: 87%
  % Inhibition, Run 1 / Run 2: 88% and 86%
  mean % activity: 13%
[1]; 10 µM
  % Activity inhibition Mean: 86.5%
  % Activity inhibition Run 1: 88%
  % Activity inhibition Run 2: 85%
  % Activity remaining Run 1: 12%
  % Activity remaining Run 2: 15%
[1]; duplicate runs
  % activity: 12% and 15%
[2]; STK33
  % Inhibition, Mean: 6.55%
  % Inhibition, Run 1 / Run 2: 3.3% and 10%
  mean % activity: 93%
[2]; STK33, duplicate runs
  % activity: 97% and 90%
[3]
  % Inhibition, Mean: 76%
  % Inhibition, Run 1 / Run 2: 83% and 69%
  mean % activity: 24%
[3]; duplicate runs
  % activity: 17% and 31%
[4]; DYRK2
  % Activation, Mean value: 4.5%
  % Inhibition, Mean: -4.5%
  mean % activity: 105%
[4]; DYRK2, duplicate runs
  % activity: 97% and 112%
[5]; MLK1
  % Inhibition, Mean: 11%
  mean % activity: 89%
[5]; MLK1, duplicate runs
  % activity: 83% and 96%
[6]; EPH-B2
  % Inhibition, Mean: 88%
  % Inhibition, Run 1 / Run 2: 89% and 87%
  mean % activity: 12%
[6]; EPH-B2, 10 µM
  % Activity inhibition Mean: 88.0%
  % Activity inhibition Run 1: 89%
  % Activity inhibition Run 2: 87%
  % Activity remaining Run 1: 11%
  % Activity remaining Run 2: 13%
[6]; EPH-B2, duplicate runs
  % activity: 11% and 13%
[7]
  % Inhibition, Mean: 29%
  mean % activity: 71%
[7]; duplicate runs
  % activity: 58% and 84%
[8]; PIM1
  % Inhibition, Mean: 26%
  % Inhibition, Run 1 / Run 2: 28% and 23%
  mean % activity: 74%
[8]; PIM1, duplicate runs
  % activity: 72% and 77%
